One compound from patent publication US9914698B2, “Stearoyl amino acid salt and preparation method and application thereof” (Shanghai Jiaotong University School of Medicine, priority 2014, dated 2018) can be followed below.

Bounds are passed on as bounds.

Data set [1] deals with gerbil model with global ischemia reperfusion injury. In words: Dark avoidance test. In kind it is in vivo. Particulars: compared with the ischemia group; NsTyr-2K 15, 30, 60 mg/kg; nimotop positive control. The source says: Taking N-stearoyl amino acid potassium NsTyr-2K as an example, a gerbil model with global ischemia reperfusion injury was used to assess the protective role of NsTyr-2K against neurobehavioral disorder caused by cerebral ischemia-reperfusion injury by examining the changing behavioral indexes such as spatial, learning and cognitive functions in the perspective of overall animals during passive dark avoidance test and Morris water maze test.
Dark avoidance test was used to evaluate the effects of NsTyr-2K influence on animal learning and memory abilities.

The nature of data set [2]: Acute toxicity test. To be noted: mouse, in vivo; oral, Kunming mice. The source says: (§1) After oral administration of NsTyr-2K, the mice were weighed. […] However, their weight followed up rapidly as food intake recovered.
(§2) After 15-day administration of NsTyr-2K, the mouse organs (brain, heart, lung, liver and kidney) were studied to see if there was any change.
(§3) This means that mouse brain tissues had not been severely damaged under such dose, and that NsTyr-2K had high safety. Even so, it is necessary to conduct further long-term safety assessment of any possible side effect of NsTyr-2K on liver and hear in the following medicinal research and to precisely determine the amount of administration required.

The test system of data set [3] is Kunming mice. In words: Acute toxicity test. To be noted: mouse, in vivo.
Description: as §1, §2, §3

Turning to `CCCCCCCCCCCCCCCCCC(=O)N[C@@H](Cc1ccc(O)cc1)C(=O)[O-].[K+]` [NsTyr-2K, N-stearoyl tyrosine potassium salt], in data set [1], the “error counts within 5 min” value is reported as “much fewer error counts within 5 min” and the latency entry is “much prolonged latency”. Further, the LD50 (commonly the dose at which mortality reaches 50%) at 15 days in data set [2] was above 2000 mg/kg. Also, in data set [3], the behavioral abnormality result was “no evidence of behavioral abnormality except loss of appetite and weight”; the organ coefficient result is “exerted certain influence upon mouse brain, heart and liver coefficients”.
